Test results: patent US20070071699A1, “Benzylidene-1,3-thiazolidine-2,4-dione compounds for promoting and/or inducing and/or stimulating the pigmentation of keratin materials and/or for limiting their depigmentation and/or whitening” (L'OREAL, priority 2005, published 2007)
Each block holds one compound with its values, some of them ahead of it.

Legend:
[1] = system: tyrosinase activity of normal human epidermal melanocytes; test: Tyrosinase activity of normal human melanocytes in culture (72 h treatment, lysate, L-Dopa substrate, absorbance 450 nm); type: cell-based; conditions: for Stimulation of the tyrosinase activity: 72 h
Description: a) Melanocyte Culture Conditions:
Normal human epidermal melanocytes are cultured (9th passage) in melanocyte growth medium M2 supplemented with:
Promocell C24300 supplements
Penicillin 50 IU/ml and streptomycin 50 μg/ml (Invitrogen) under standard temperature conditions (37° C.) at 5% CO2.
b) Preparation of the Solutions of the Test Compound:
The final titre of the prepared solutions is 10 mM. The final test concentrations range from 0.1 to 10 μM (PGE2) and 1 to 10 μM (15-PGDH inhibitors).
c)Principle of the Tests:
The tests performed consist in measuring the […] alone or combined with PGE2* on the overall activity of tyrosinase. *PGE2 is a pigmentation modulator that is deactivated by the enzyme 15-PGDH.
The melanocytes are cultured in 96-well plates up to confluence (culture conditions described in a) and the supernatant of each of the wells is then removed and replaced with the medium containing the compounds to be evaluated.
Thus (in triplicate), the 15-PGDH inhibitor alone at 1 μM and 10 μM or, for each of these first conditions, in the presence of 0.1 μM, 1 μM or 10 μM of PGE2.
The cultures are maintained under these various conditions for 72 h, the supernatants are then removed and the cell lawns are washed with a phosphate buffer (pH=7.2). The cells are lysed with a pH 7.2 phosphate buffer containing 1% Triton X100.
The tyrosinase activity of each of the lysates is then estimated against a fungal tyrosinase range (Sigma T7755).
The methodology implemented uses L-Dopa as reaction substrate (45 minutes at 37° C.); the formation of melanin is assessed by measuring the absorbance at 450 nm.
In this test, two references are also evaluated: kojic acid (a tyrosinase inhibitor introduced at 0.1% into the culture medium) and isobutyl methyl xanthine (IBMX), a phosphodiesterase inhibitor which, by limiting the catabolism of cAMP, contributes towards increasing the overall tyrosinase activity as assessed in this test.

type-1 15-PGDH = molecular target: T1, type-1 15-PGDH (Homo sapiens, UniProt P15428); test: Test on type-1 15-PGDH (spectrophotometric, NADH formation at 340 nm, PGE2 substrate); type: biochemical; conditions: 37° C., pH 7.4 Tris buffer, 1.5 mM β-NAD, 50 μM Prostaglandin E2
T1 construct: made in house
T1 sequence (P15428 1-266): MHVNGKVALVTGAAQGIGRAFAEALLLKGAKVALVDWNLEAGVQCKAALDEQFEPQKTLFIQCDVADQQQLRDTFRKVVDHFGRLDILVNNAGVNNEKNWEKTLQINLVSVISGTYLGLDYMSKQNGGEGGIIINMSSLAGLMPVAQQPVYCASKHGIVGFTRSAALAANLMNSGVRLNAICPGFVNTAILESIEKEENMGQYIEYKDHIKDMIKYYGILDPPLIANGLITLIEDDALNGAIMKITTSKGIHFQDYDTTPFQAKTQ
Description: For the purposes of the test, this suspension is thawed and stored in ice.
0.965 ml of this buffer (brought to 37° C. beforehand) is introduced into the cuvette of a spectrophotometer (Perkin-Elmer, Lambda 2) thermostatically maintained at 37° C., the measuring wavelength of which is set at 340 nm. 0.035 mL of enzymatic suspension at 37° C. is introduced into the cuvette concomitantly with the recording (corresponding to an increase in the optical density at 340 nm). The maximum reaction rate is recorded.

Structure (SMILES): CC(C)(C)c1ccc(Oc2ccccc2/C=C2\SC(=O)N=C2[O-])cc1.[Na+] [Compound 4, (5Z)-5-[2-(4-tert-butylphenoxy)benzylidene]-1,3-thiazolidine-2,4-dione]
- Stimulation of the tyrosinase activity ([1]; Compound 4 1 μM + PGE2 0.1 μM): +27%
- Stimulation of the tyrosinase activity ([1]; Compound 4 1 μM + PGE2 1 μM): +40%
- Stimulation of the tyrosinase activity ([1]; Compound 4 1 μM + PGE2 10 μM): +32%
- Stimulation of the tyrosinase activity ([1]; Compound 4 1 μM alone): +16%

- Stimulation of the activity of tyrosinase ([1]; PGE2 alone at 0.1 μM): +3%
- Stimulation of the activity of tyrosinase ([1]; PGE2 alone at 1 μM): +9%
Structure (SMILES): CCCCC[C@H](O)/C=C/[C@H]1[C@H](O)CC(=O)[C@@H]1C/C=C\CCCC(=O)O [PGE2, Prostaglandin E2, reference compound]

- IC50 (type-1 15-PGDH): 5 µM
Structure (SMILES): O=C1NC(=O)/C(=C\c2ccc(OCc3cccc(Cl)c3)cc2)S1 [Compound 13]

- IC50 (type-1 15-PGDH): 1.55 µM
Structure (SMILES): O=C1NC(=O)/C(=C/c2ccccc2Oc2ccc(Br)c(F)c2)S1 [Compound 14]
